For series [1], the system named is hMSCs. In words: Alkaline Phosphatase functional activity assay in hMSCs. It counts as cell-based, human. More on the design: key to Alkaline Phosphatase activity, −matrix, 8 days / Alkaline Phosphatase activity, +matrix, 8 days / Alkaline Phosphatase activity, −matrix, 25 days / Alkaline Phosphatase activity, +matrix, 25 days: fold-change vs DMSO-treated control (control = 1). Particulars: for ALP functional activity, compound and matrix versus compound alone or matrix alone / Alkaline Phosphatase activity, +matrix, 8 days / Alkaline Phosphatase activity, +matrix, 25 days / Alkaline Phosphatase activity, −matrix, 25 days / Alkaline Phosphatase activity, −matrix, 8 days: 500 nM; for ALP functional activity, compound and matrix versus compound alone or matrix alone: 8 and 25 day incubations, matrix 5 mg/mL (FIG. 3); for Alkaline Phosphatase activity, +matrix, 8 days / Alkaline Phosphatase activity, +matrix, 25 days: matrix 5 mg/mL; for Alkaline Phosphatase activity, +matrix, 8 days / Alkaline Phosphatase activity, +matrix, 25 days / Alkaline Phosphatase activity, −matrix, 25 days / Alkaline Phosphatase activity, −matrix, 8 days: mean +/− SD (n = 3); for Alkaline Phosphatase activity, −matrix, 8 days: fold; for EC50: dose-dependent induction in hMSCs, read-out: EC50 of induction of ALP activity.

Series [2] concerns C2C12 cells. Briefly: Alizarin Red S staining (calcium deposition) in C2C12 cells. It counts as cell-based, Mouse. Particulars: 500 nM, 25 days of treatment. The method, then: Alizarin Red S Staining: C2C12 cells were cultured as described for the ALP functional activity assay (above, except compound was added every 48 hr for 25 days), but using 48-well plate format. On day 25, medium was removed and the cells were washed with PBS (calcium and magnesium free). Cells were fixed with 70% ethanol at room temperature for 30 mins, rinsed with water 3×. Following removal of water, 200 μl of Alizarin Red S (2%, pH 4.1) was added to each well and incubated for at least 20 mins. The dye was removed and the cells were washed with excess H2O four times with gentle mixing. The cells were covered with water to prevent evaporation and analyzed by plate reader or microscope. This protocol was applied to hMSC and E15 cells.

The test system of series [3] is hMSCs. Briefly: Oil Red O staining (adipogenesis) in hMSCs. In kind it is cell-based, human. Particulars: for effect on adipogenesis, densitometry of cell culture images: 500 nM every 48 hr for 25 days, TCP 5 mg/mL; for adipogenesis (Oil Red O staining) compared to vehicle-treated hMSCs: presence or absence of matrix, 25 days. The procedure:
Oil Red O Staining: Oil Red O (ORO, 1-(2,5-dimethyl-4-(2-5-dimethylphenyl) phenyldiazenyl) azonapthalen-2-ol) was used to stain for the presence of adipocytes. An ORO solution was prepared to afford a 0.03% final concentration in dH2O. hMSCs were cultured as described above for Alizarin Red Staining (Example 7) in 48-well plates. On day 25 of cell incubation, cells were fixed with 4% formaldehyde for 40 mins at room temperature. Cells were stained for 1 hr followed by washes with dH2O (1 mL) until the wash water was clear (without red elutes). Cell culture images were taken under a microscope and quantified by densitometry.

The test system of series [4] is C2C12 cells. In words: qPCR of apoptosis biomarkers (Bax and Fos) in C2C12 cells. The settings on record: 500 nM or 5 μM every 48 hrs, up to 25 days. In kind it is cell-based, Mouse. For orientation: In qPCR the cycle at which signal appears reflects the starting amount.
Series [5] relates to C2C12 cells. Briefly: qPCR detection of osteogenic markers in C2C12 cells. In kind it is cell-based, Mouse. The settings on record: 500 nM, 6 days.
The test system of series [6] is hMSCs. In words: Alamar blue cell viability assay in hMSCs. Particulars: 500 nM, 25-day-old hMSCs. In kind it is cell-based, human. The method, then:
(§1) Cell proliferation/viability assay: Cells were seeded at a density of 500 cells/well on 96-well plates. After 24 hr, compound (i.e., 5 nM, 50 nM, 500 nM or 5000 nM) was added to the cells in the presence or absence of calcium phosphate matrix (5 mg/mL). One-half of the media was replaced with fresh media containing compound every 48 hours for 8 days. At the specified time, 1 μg of Resazurin was added to each well of the 96-well plate and the fluorescence signal at 590 nm (excitation at 530 nm) was immediately measured. Readings were designated as time zero values (value0h). Cells were incubated for 1 hr before a second fluorescence measurement at 590 nm was made (value1h). The difference in 1 hr and 0 h (value1h−value0h) readings were used to plot the fold-change in cell proliferation/viability after normalizing to control conditions (i.e., DMSO vehicle treatment). Compounds of Formula II or IV that activate Wnt signaling and compounds of Formula VI that activate TLR signaling pathways were analyzed. This protocol was applied to hMSC and E15 cells as well. Cell proliferation was not robust in keeping with a narrow number of cells highly committed to the bone cell lineage.
The assay for cell proliferation followed the same procedure with hMSCs as described for C2C12 cells (Example 7).
(In general: Alamar Blue is a resazurin reagent that responds to reducing activity.)

The subject of series [7] is hMSCs. Briefly: qPCR of apoptosis biomarkers (Bax and Fos) in hMSCs. In kind it is cell-based, human. Particulars: for gene expression of apoptosis biomarkers (Bax and Fos): 500 nM to 5 μM, up to 25 days; for cytotoxicity as determined by quantification of apoptosis: hMSCs.
Series [8] concerns C2C12 cells. In words: Cell proliferation/viability assay (Resazurin / Alamar blue) in C2C12 cells. It counts as cell-based, Mouse. The settings on record: for cell viability (Alamar blue): 500 nM every 48 hrs for 25 days. The method, then:
as §1, with “One-half of the media was replaced with fresh media containing compound every 48 hours for 8 days.” left out

In series [9] the test system is C2C12 cells. In words: Alkaline Phosphatase (ALP) functional activity assay in C2C12 cells. Particulars: 500 nM; for ALP activity, combination of compound and matrix compared to compound alone or matrix alone: 6 day incubation, tricalcium phosphate ceramic matrix 5 mg/mL (FIG. 2); for ALP activity fold-changes +/− SD, −matrix / ALP activity fold-changes +/− SD, +matrix: 6 days of culture; for ALP activity fold-changes +/− SD, −matrix: absence of matrix, versus untreated (DMSO) cells; for ALP activity fold-changes +/− SD, +matrix: calcium phosphate ceramic 5 mg/mL. In kind it is cell-based, Mouse. Summed up: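 C2C12 cells were seeded in 12-well plates at 7,000 cells/well in 1 mL growth media and exposed to compound in 0.1% DMSO (500 nM). Every 48 hrs half the media was replaced with fresh compound-containing media. After 6 days, cells were lysed and ALP activity measured by pNPP hydrolysis at OD405, normalized to protein and DMSO controls.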

The structures appear in SMILES notation. Read-outs that look alike come from different tables or passages of the source.

On to `CC(C)[C@H](N)C(=O)Oc1ccc(/C=C/C(O)=C2\CCC/C(=C\c3ccc(OC(=O)[C@@H](N)C(C)C)cc3)C2=O)cc1` [Compound 4, 4-((1E,3Z)-3-(3-((E)-4-((L-valyl)oxy)benzylidene)-2-oxocyclohexylidene)-3-hydroxyprop-1-en-1-yl)phenyl L-valinate], for which, in the series with hMSCs [1], the “ALP functional activity, compound and matrix versus compound alone or matrix alone” value was “exceeded the effect of compound alone or matrix alone”; the “Alkaline Phosphatase activity, +matrix, 8 days” value is 2.7 ± 0.2; the “Alkaline Phosphatase activity, +matrix, 25 days” value is 4.0 ± 0.4; the “Alkaline Phosphatase activity, −matrix, 25 days” value stood at 1.8 ± 0.2. Further, the “Alkaline Phosphatase activity, −matrix, 8 days” value with hMSCs [1] is given as 1.5 ± 0.1. Further, the EC50 in the series with hMSCs [1] (Homo sapiens) was 130 nM. In the series with C2C12 cells [2], the “calcium deposition, absence of matrix” value is “marked calcium deposition”. Also, in the series on hMSCs [3], the “effect on adipogenesis, densitometry of cell culture images” value is listed as “modestly inhibitory to adipogenesis” and the “adipogenesis (Oil Red O staining) compared to vehicle-treated hMSCs” value is “no increase in adipogenesis”. Moreover, the “gene expression of apoptosis biomarkers (Bax and Fos)” value (“gene expression” for short) with C2C12 cells [4] is given as “unable to detect gene expression of typical apoptosis biomarkers”. In addition, the “ID3 mRNA expression, presence of matrix” value in the series on C2C12 cells [5] was “increased expression”. Besides, the “cell viability (Alamar blue)” value with hMSCs [6] was “no decrease in cell viability”. Besides, in the series on hMSCs [7], the “gene expression” value is listed as “unable to detect gene expression of typical apoptosis biomarkers”; the “cytotoxicity as determined by quantification of apoptosis” value (shortened to “cytotoxicity as determined”) is given as “no cytotoxicity”. Moreover, the “cell viability (Alamar blue)” value with C2C12 cells [8] is listed as “did not show a decrease in cell viability”. Besides, in the series with C2C12 cells [9], the “ALP activity, combination of compound and matrix compared to compound alone or matrix alone” value is “synergistic increase in ALP activity”; the “ALP activity fold-changes +/− SD, −matrix” value turned out to be 1.7 ± 0.2 fold; the “ALP activity fold-changes +/− SD, +matrix” value was 2.6 ± 0.3 fold.
As for `CC(=O)N1c2ccc(C)cc2[C@H](Nc2ccc(C)cc2)C[C@@H]1C` (relative stereo) [Compound 1, cis-1-acetyl-2,6-dimethyl-N-(p-methylphenyl)-1,2,3,4-tetrahydroquinolin-4-amine], in the series with hMSCs [1], the “ALP functional activity, compound and matrix versus compound alone or matrix alone” value is listed as “exceeded the effect of compound alone or matrix alone”; the “Alkaline Phosphatase activity, +matrix, 8 days” value was determined as 1.5 ± 0.1; the “Alkaline Phosphatase activity, +matrix, 25 days” value was 3.6 ± 0.4; the “Alkaline Phosphatase activity, −matrix, 25 days” value was 1.5 ± 0.1. For the same compound, the “Alkaline Phosphatase activity, −matrix, 8 days” value in the series on hMSCs [1] came out at 1.2 ± 0.1. In addition, the EC50 with hMSCs [1] (Homo sapiens) amounted to 26 nM. In the series with C2C12 cells [2], the “calcium deposition, absence of matrix” value stood at 1.6 fold and the “calcium deposition, presence of matrix” value is listed as 2.5 fold. Besides, the “gene expression” value in the series with C2C12 cells [4] was “unable to detect gene expression of typical apoptosis biomarkers”. Besides, in the series on C2C12 cells [5], the “ID3 mRNA expression, absence of matrix” value is listed as 1.8 fold and the “ID3 mRNA expression, presence of matrix” value worked out at 5.0 fold. Also, the “cell viability (Alamar blue)” value in the series with hMSCs [6] is “no decrease in cell viability”. Moreover, in the series on hMSCs [7], the “gene expression” value was “unable to detect gene expression of typical apoptosis biomarkers”; the “cytotoxicity as determined” value is given as “no cytotoxicity”. In the series on C2C12 cells [8], the “cell viability (Alamar blue)” value was “did not show a decrease in cell viability”. In the series on C2C12 cells [9], the “ALP activity, combination of compound and matrix compared to compound alone or matrix alone” value is listed as “synergistic increase in ALP activity”; the “ALP activity fold-changes +/− SD, +matrix” value was found to be 19.4 ± 2.0 fold.
For `CC(C)[C@H](N)C(=O)Oc1ccc(C=CC(=O)C=C(O)C=Cc2ccc(OC(=O)[C@@H](N)C(C)C)cc2)cc1` [Compound 3, (2S,2′S)—O,O′-(3-hydroxy-5-oxohepta-1,3,6-triene-1,7-diyl)bis(4,1-phenylene) bis(2-amino-3-methylbutanoate)], in the series with hMSCs [1], the “ALP functional activity, compound and matrix versus compound alone or matrix alone” value is listed as “exceeded the effect of compound alone or matrix alone”; the “Alkaline Phosphatase activity, +matrix, 8 days” value is reported as 1.8 ± 0.1; the “Alkaline Phosphatase activity, +matrix, 25 days” value came to 2.3 ± 0.2; the “Alkaline Phosphatase activity, −matrix, 25 days” value is 1.7 ± 0.1. In the series with hMSCs [1], the “Alkaline Phosphatase activity, −matrix, 8 days” value came out at 1.5 ± 0.1 and the EC50 was found to be 140 nM. Also, the “calcium deposition, absence of matrix” value in the series with C2C12 cells [2] is “marked calcium deposition”. In the series on hMSCs [3], the “effect on adipogenesis, densitometry of cell culture images” value is listed as “modestly inhibitory to adipogenesis” and the “adipogenesis (Oil Red O staining) compared to vehicle-treated hMSCs” value was “no increase in adipogenesis”. In addition, in the series with C2C12 cells [4], the “gene expression” value is recorded as “unable to detect gene expression of typical apoptosis biomarkers”. The “ID3 mRNA expression, presence of matrix” value with C2C12 cells [5] is reported as “increased expression”. Moreover, the “cell viability (Alamar blue)” value with hMSCs [6] is reported as “no decrease in cell viability”. In addition, in the series on hMSCs [7], the “gene expression” value is “unable to detect gene expression of typical apoptosis biomarkers”; the “cytotoxicity as determined” value is listed as “no cytotoxicity”. The “increase in cell proliferation (Alamar Blue Assay)” value in the series with C2C12 cells [8] (50 nM, 3 days) came out at 4 fold. In addition, the “cell viability (Alamar blue)” value in the series on C2C12 cells [8] was “did not show a decrease in cell viability”. In addition, in the series with C2C12 cells [9], the “ALP activity, combination of compound and matrix compared to compound alone or matrix alone” value is recorded as “synergistic increase in ALP activity”; the “ALP activity fold-changes +/− SD, −matrix” value is given as 1.7 ± 0.2 fold.

A word on the EC50: it is the concentration giving half of the maximal effect.

(Values after patent US11596716B2, “Compounds and matrices for use in bone growth and repair” (Human BioMolecular Research Institute, priority 2013, dated 2023).)
